Literature values in patent US5786344A, “Camptothecin drug combinations and methods with reduced side effects” (priority 1995, dated 1998).
Entries after “also recorded” stand apart in the source; their conditions may differ. Structures can show the parent of a compound that is named as a salt. Where two headings read alike, the source gives them in different places.

Columns and labels:
[1] = system: p-glycoprotein; conditions: cited from earlier work; for inhibition of photoaffinity labeling of p-glycoprotein: photolabeling
[2] = cited from earlier work
[3] = cited from earlier work; for plasma concentration: single dose 600 mg
[4] = system: multidrug resistant (MDR) cells; conditions: cited from earlier work
[5] = listed as Trifluoperazine, dihydrochloride
[6] = plasma/serum/terminal or elimination half-life

COc1ccc(C[C@H](N)C(=O)N[C@H]2[C@@H](O)[C@H](n3cnc4c(N(C)C)ncnc43)O[C@@H]2CO)cc1 [puromycin]
inhibition of / interaction with p-glycoprotein [1]: interacted with p-glycoprotein

CCOC(=O)N(C)[C@@H]1C[C@H]2O[C@@](C)([C@@H]1OC)n1c3ccccc3c3c4c(c5c6ccccc6n2c5c31)C(=O)NC4=O [NA-382, N-ethoxycarbonyl-7-oxo-staurosporine]
inhibition of / interaction with p-glycoprotein [1]: inhibiting drug binding to p-glycoprotein

CS(=O)(=O)O.C[C@]12C=CC(=O)C=C1CC[C@@H]1C2=CC[C@]2(C)[C@@H](C(=O)CN3CCN(c4cc(N5CCCC5)nc(N5CCCC5)n4)CC3)CC[C@@H]12 [U-74389F]
inhibition of / interaction with p-glycoprotein [1]: potent inhibitors

OCCN1CCN(CCCN2c3ccccc3Sc3ccc(C(F)(F)F)cc32)CC1 [Fluphenazine hydrochloride]
onset of action ([2]; human, in vivo): ≤ 1 h
potency relative to chlorpromazine / other phenothiazines ([2]; human, in vivo): more potent
duration of action ([2]; oral or intramuscular): 6 h
oral absorption ([3]; oral): absorbed rapidly

C=CC1CN2CCC1CC2C(O)c1ccnc2ccc(OC)cc12 (centres unmarked) [Quinidine polygalacturonate]
gastrointestinal side effects ([2]; human, in vivo): lesser incidence and severity of gastrointestinal side effects

CC(=O)O[C@@]12CO[C@@H]1C[C@H](O)[C@@]1(C)C(=O)[C@H](O)C3=C(C)[C@@H](OC(=O)[C@H](O)[C@@H](NC(=O)OC(C)(C)C)c4ccccc4)C[C@@](O)([C@@H](OC(=O)c4ccccc4)[C@H]21)C3(C)C [Taxotere]
inhibition of / interaction with p-glycoprotein [1]: p-glycoprotein inhibitors

OCCN(CCO)c1nc(N2CCCCC2)c2nc(N(CCO)CCO)nc(N3CCCCC3)c2n1 [Dipyridamole, [2,6-Bis(diethanolamino)-4,9-dipiperidinopyrimido-(5,4-d)pyrimidine]
clinical toxicity ([2]; human, in vivo): quite nontoxic

COc1cc([C@@H]2c3cc4c(cc3[C@@H](O[C@@H]3O[C@@H]5CO[C@@H](C)O[C@H]5[C@H](O)[C@H]3O)[C@H]3COC(=O)[C@H]23)OCO4)cc(OC)c1O [etoposide]
inhibition of / interaction with p-glycoprotein [1]: interacted with p-glycoprotein
peak plasma concentration ([3]; human, in vivo, iv): 30 µg/mL
oral absorption ([3]; human, in vivo, po): about 50%
concentration in CSF relative to plasma ([3]; human, in vivo): 1-10%
excreted unchanged (urine) ([3]; human, in vivo): Approximately 40%
half-life ([3]; human, in vivo): about 8 hours

CCN1CCN(C(=O)N[C@@H](C(=O)N[C@@H]2C(=O)N3C(C(=O)O)=C(CSc4nnnn4C)CS[C@H]23)c2ccc(O)cc2)C(=O)C1=O [Cefoperazone]
peak plasma concentration ([3]; human, in vivo, im): 80 to 120 µg/mL
peak plasma concentration ([3]; human, in vivo, iv): 250 to 357 µg/mL
biliary secretion ([3]; human, in vivo): 70%
urinary excretion ([3]; human, in vivo): 30%
oral absorption ([3]; oral): absorbed poorly

CCCCCCC(=O)OCCN1CCN(CCCN2c3ccccc3Sc3ccc(C(F)(F)F)cc32)CC1 [Fluphenazine enanthate]
duration of action ([2]; intramuscular or subcutaneous, listed as enanthate salt): 2 wk

C=C1[C@@H](C)[C@H]2[C@H](Cc3ccccc3)NC(=O)[C@]23OC(=O)/C=C/[C@H](O)CCC[C@@H](C)C/C=C/[C@H]3[C@@H]1O [cytochalasin B]
inhibition of / interaction with p-glycoprotein [1]: inhibiting p-glycoprotein

CN1CCN(CCCN2c3ccccc3Sc3ccc(C(F)(F)F)cc32)CC1 [trifluoperazine, 1OH-Phenothiazine, 10-[3-(4-methyl-1-piperazinyl)propyl]-2-(trifluoromethyl)-, dihydrochloride]
inhibition of photoaffinity labeling of p-glycoprotein ([1]; dihydrochloride): poor inhibitors
inhibition of photoaffinity labeling of p-glycoprotein [1, 5]: without inhibiting photoaffinity labeling
reversal of drug resistance ([4]; dihydrochloride): effectively reverse multidrug resistance
reversal of drug resistance [4, 5]: reverses multidrug resistance

COc1cccc2c1C(=O)c1c(O)c3c(c(O)c1C2=O)C[C@@](O)(C(=O)CO)C[C@@H]3O[C@H]1C[C@H](N)[C@H](O)[C@H](C)O1 [doxorubicin, 5,12-Naphthacenedione, (8s-cis)-10-[(3-amino-2,3,6-trideoxy-α-L-lyxo-hexopyranosyl)oxy)-7,8,9,10-tetrahydro-6,8,11-trihydroxy-8-(hydroxyacetyl)-1-methoxy-hydrochloride]
inhibition of / interaction with p-glycoprotein [1]: interacted with p-glycoprotein
oral absorption ([3]; human, in vivo, po): absorbed poorly
half-life [3, 6]: about 30 hr

CO[C@H]1/C=C/O[C@@]2(C)Oc3c(C)c(O)c4c(O)c(c(/C=N/N5CCN(C)CC5)c(O)c4c3C2=O)NC(=O)/C(C)=C\C=C\[C@H](C)[C@H](O)[C@@H](C)[C@@H](O)[C@@H](C)[C@H](OC(C)=O)[C@@H]1C [Rifampin, Rifamycin, 3-[[(4-methyl-1-piperazinyl)imino]methyl]-]
duration of effective levels ([3]; human, in vivo): 8 to 10 h

CCN(CC)CCCC(C)Nc1ccnc2cc(Cl)ccc12 (centres unmarked) [Chloroquine phosphate, 1,4-Pentanediamine, N^4-(7-chloro-4-quinolinyl)-N^1, N^1-diethyl-, phosphate (1:2)]
oral absorption ([3]; oral): absorbed almost completely

Cc1ccc(C)c(OCCCC(C)(C)C(=O)O)c1 [Gemfibrozil]
potency relative to clofibrate ([2]; human, in vivo): more potent than clofibrate
plasma concentration ([3]; after 2 hours): about 15 μg/ml
plasma concentration ([3]; after 9 hours): ~5000 ng/mL

CC(C)OC(=O)C(C)(C)Oc1ccc(C(=O)c2ccc(Cl)cc2)cc1 [fenofibrate]
potency relative to clofibrate ([2]; human, in vivo): more potent than clofibrate

CN(C)CCCN1c2ccccc2Sc2ccc(Cl)cc21 [Chlorpromazine hydrochloride, 10H-Phenothiazine-10-propanamine, 2-chloro-N,N-dimethyl-, mono hydrochloride]
volume of distribution ([3]; human, in vivo, im): 21.8 L/kg
bioavailability / dose reaching the systemic circulation ([3]; human, in vivo, po): 32%
volume of distribution ([3]; human, in vivo, po): 80.6 L/kg

CCN(CC)CCCC(C)Nc1ccnc2cc(Cl)ccc12 (centres unmarked) [Chloroquine]
reversal of drug resistance [4]: partially reverses drug resistance

CC(C)(Oc1ccc(C2CC2(Cl)Cl)cc1)C(=O)O (centres unmarked) [ciprofibrate]
potency relative to clofibrate ([2]; human, in vivo): more potent than clofibrate

CC(=O)[C@H]1CC[C@H]2[C@@H]3CCC4=CC(=O)CC[C@]4(C)[C@H]3CC[C@]12C [progesterone]
inhibition of / interaction with p-glycoprotein [1]: inhibited the transporting activity of p-glycoprotein; also recorded: inhibits their drug efflux

C=C[C@@]1(C)CC(=O)[C@@H]2[C@@]3(C)CCCC(C)(C)[C@@H]3[C@H](O)[C@H](OC(C)=O)[C@@]2(C)O1 [1,9-dideoxyforskolina]
inhibition of / interaction with p-glycoprotein [1]: p-glycoprotein inhibitors

CCC1(c2ccccc2)C(=O)NC(=O)NC1=O [Phenobarbital, 2,4,6(1H,3H,5H)-Pyrimidinetrione, 5-ethyl-5-phenyl-]
oral absorption ([3]; % of oral dose): Approximately 80%
therapeutic plasma levels ([3]; human, in vivo): 10 to 30 µg/mL
time to peak plasma level ([3]; human, plasma): 16 to 18 h

O=C1NC(=O)C(c2ccccc2)(c2ccccc2)N1 [Phenytoin, 2,4-Imidazolidinedione, 5,5-diphenyl-]
lethal plasma levels ([3]; human, in vivo): ~100 µg/mL

COc1ccc2cc1Oc1ccc(cc1)C[C@H]1c3c(cc4c(c3Oc3cc5c(cc3OC)CCN(C)[C@@H]5C2)OCO4)CCN1C [cepharanthine]
inhibition of photoaffinity labeling of p-glycoprotein [1]: showed inhibition

COc1cccc2c1C(=O)c1c(O)c3c(c(O)c1C2=O)C[C@@](O)(C(C)O)C[C@@H]3O[C@H]1C[C@H](N)[C@H](O)[C@H](C)O1 (some centres unmarked) [daunorubicinol]
half-life [3, 6]: about 27 hr

CC(C)(Oc1ccc(CCNC(=O)c2ccc(Cl)cc2)cc1)C(=O)O [bezafibrate]
potency relative to clofibrate ([2]; human, in vivo): more potent than clofibrate

CC(=O)[C@H]1CC[C@H]2[C@@H]3CC=C4C[C@@H](O)CC[C@]4(C)[C@H]3CC[C@]12C [pregnenolone]
inhibition of / interaction with p-glycoprotein [1]: inhibited the transporting activity of p-glycoprotein

O=C1CN=C(c2ccccc2Cl)c2cc([N+](=O)[O-])ccc2N1 [Clonazepam, 2H-1,4-Benzodiazepin-2-one, 5-(2-chlorophenyl)-1,3-dihydro-7-nitro-]
therapeutic plasma levels ([3]; human, in vivo): 0.02 to 0.08 µg/mL

OCCN1CCN(CC/C=C2/c3ccccc3Sc3ccc(C(F)(F)F)cc32)CC1 [cis-flupenthixol]
reversal of drug resistance [4]: reversed cellular resistance to various drugs only in p-glycoprotein expressing cell lines

CCCCCCCCCC(=O)OCCN1CCN(CCCN2c3ccccc3Sc3ccc(C(F)(F)F)cc32)CC1 [Fluphenazine decanoate]
duration of action ([2]; intramuscular or subcutaneous): about 4 wk

OCCN1CCN(CCCN2c3ccccc3Sc3ccc(C(F)(F)F)cc32)CC1 [fluphenazine]
reversal of drug resistance [4]: reversed cellular resistance to various drugs only in p-glycoprotein expressing cell lines

COc1ccc(CCN(C)CCCC(C#N)(c2ccc(OC)c(OC)c2)C(C)C)cc1OC (stereo not drawn) [Verapamil hydrochloride, benzeneacetonitrile, α-[3-[[2-(3,4-dimethoxyphenyl)ethyl]-methylamino]propyl]-3,4-dime thoxy-a-(l-methylethyl)-, hydrochloride]
excreted unchanged (urine) ([3]; % of dose): less than 5%
fecal excretion ([3]; % of dose): 16%
oral absorption ([3]; % of oral dose): more than 90%

CN(C)CCCN1c2ccccc2Sc2ccc(C(F)(F)F)cc21 [Triflupromazine hydrochloride, 1OH-Phenothiazine-10-propanamine, N,N-dimethyl-2-(trifluoromethyl)-monohydrochloride]
potency relative to chlorpromazine / other phenothiazines ([2]; human, in vivo): somewhat more potent
